Source: the supplement of paper PMC4858399
Structures can show the parent of a compound that is named as a salt.

How the values were obtained:
[1] = tested on: Caenorhabditis elegans N2; experiment: mean nematode size ln(EXT) after 48 h, plate-adjusted (DMSO control set to 6) (ln(EXT), control-adjusted); higher = larger nematodes / less growth inhibition; conditions: exposure time 48 h
Method in brief: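 A growth model removed debris from Biosort extinction readings taken on each worm. These worms were synchronised C. elegans N2 L1 larvae, 50 per well in 4–6 wells per treatment, grown for 48 h at 20°C in K-medium with killed OP50, 1% DMSO and 0.5–200 µM chemical. Readings were natural-logged and averaged by well to give mean size. On each plate, the vehicle control mean was subtracted and 6 was added.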

[2] = tested on: Caenorhabditis elegans N2; experiment: lowest effective concentration for larval growth inhibition (size below effect threshold); higher = less potent; conditions: exposure time 48 h
Method in brief: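 Worm size was taken as per-worm extinction on the Biosort, log-transformed and turned into well means. The larvae (C. elegans N2, L1 stage, 50 per 96-well) had spent 48 h at 20°C in K-medium with killed bacteria, 1% DMSO and 0.5, 1, 5, 10, 50, 100 or 200 µM chemical. The lowest effective concentration marks the first dose where the plate-adjusted mean size drops under a cutoff and remains under it at every higher dose; the cutoff is 5.665.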

| Structure (SMILES) | mean nematode size ln(EXT) (ln) ([1]; 0.5 µM) | mean nematode size ln(EXT) (ln) ([1]; 1 µM) | mean nematode size ln(EXT) (ln) ([1]; 5 µM) | mean nematode size ln(EXT) (ln) ([1]; 10 µM) | mean nematode size ln(EXT) (ln) ([1]; 50 µM) | mean nematode size ln(EXT) (ln) ([1]; 100 µM) | mean nematode size ln(EXT) (ln) ([1]; 200 µM) | lowest effective concentration [2] |
| --- | --- | --- | --- | --- | --- | --- | --- | --- |
| CCOCCOCCOCCO [2-[2-(2-Ethoxyethoxy)ethoxy]ethanol] | 5.96 | 5.89 | 5.95 | 5.94 | 5.91 | 5.9 | 5.83 | > 200 µM |
| CC(=O)C1C(=O)C=C(C)OC1=O (stereo not given) [Sodium dehydroacetate] | 5.99 | 5.95 | 5.97 | 5.86 | 5.94 | 5.93 | 5.72 | > 200 µM |
| Clc1cccc(Cl)c1 [1,3-Dichlorobenzene] | 5.9 | 5.89 | 5.87 | 5.96 | 5.99 | 5.99 | 5.79 | > 200 µM |
| CCCCCCOC(=O)CC(CC(=O)OCCCCCC)(OC(=O)CCC)C(=O)OCCCCCC [N-Butyryl tri-N-hexyl citrate] | 5.93 | 5.96 | 5.91 | 5.98 | 6.15 | 5.75 | 5.83 | > 200 µM |
| COc1c(Cl)ccc(Cl)c1C(=O)O [Dicamba] | 5.78 | 5.92 | 5.72 | 5.98 | 6.18 | 6.37 | 6.03 | > 200 µM |
| Oc1ccccc1Cl [2-Chlorophenol] | 5.99 | 5.99 | 6.06 | 6.11 | 6.21 | 6.13 | 5.71 | > 200 µM |
| ClC(Cl)c1ccccc1 [Benzal chloride] | 5.81 | 5.83 | 5.86 | 5.78 | 5.85 | 5.89 | 5.68 | > 200 µM |
| CC(C)CC(C)(O)C#CC(C)(O)CC(C)C (racemic) | 5.77 | 5.77 | 5.78 | 5.78 | 5.64 | 5.75 | 5.81 | > 200 µM |
| CNC(=O)Oc1ccccc1OC(C)C [Propoxur] | 6.04 | 5.9 | 6.09 | 6.03 | 5.83 | 6.46 | 5.8 | > 200 µM |
| COc1cccc([C@H](O)C2CCN(CCc3ccc(F)cc3)CC2)c1OC [Volinanserin] | 5.67 | 5.79 | 5.78 | 5.95 | 5.83 | 5.8 | 5.78 | > 200 µM |
| O=C1CCCO1 [4-Butyrolactone] | 6.1 | 6.08 | 6 | 6.1 | 6.09 | 6.02 | 5.81 | > 200 µM |
| Cc1ccc(S(=O)(=O)O)cc1C [Sodium xylenesulfonate] | 5.89 | 5.95 | 5.92 | 5.82 | 5.89 | 5.8 | 5.72 | > 200 µM |
| Cc1ccc(N)c(N)c1 [3,4-Diaminotoluene] | 5.97 | 5.93 | 5.94 | 5.91 | 5.88 | 5.71 | 5.75 | > 200 µM |
| O=C(O)CCCOc1ccc(Cl)cc1Cl [2,4-DB] | 6.17 | 5.97 | 6.06 | 6.03 | 6.13 | 6.21 | 5.85 | > 200 µM |
| C#C[C@]1(O)CC[C@H]2[C@@H]3CCc4cc(O)ccc4[C@H]3CC[C@@]21C [17alpha-Ethynylestradiol] | 6 | 5.96 | 5.9 | 5.91 | 6 | 5.86 | 5.92 | > 200 µM |
| N#CN [Cyanamide] | 5.91 | 5.96 | 6.01 | 6 | 5.96 | 6.01 | 5.92 | > 200 µM |
| Cc1ccc(N=C=O)cc1N=C=O [Toluene-2,4-diisocyanate] | 5.73 | 5.8 | 5.73 | 5.78 | 5.7 | 5.61 | 5.67 | > 200 µM |
| OCCCl [2-Chloroethanol] | 6 | 5.9 | 5.92 | 5.82 | 5.91 | 5.95 | 5.83 | > 200 µM |
| OC[C@H]1O[C@@](CO)(O[C@H]2O[C@H](CO)[C@@H](O)[C@H](O)[C@H]2O)[C@@H](O)[C@@H]1O [Sucrose] | 6.01 | 5.97 | 6.04 | 5.98 | 5.84 | 5.87 | 5.82 | > 200 µM |
| COC(=O)NS(=O)(=O)c1ccc(N)cc1 [Asulam] | 6.06 | 5.99 | 5.51 | 6.04 | 5.49 | 5.99 | 5.83 | > 200 µM |
| CC(C)C(=O)OCC(C)(C)C(OC(=O)C(C)C)C(C)C (stereo not given) [2,2,4-Trimethyl-1,3-pentanediol diisobutyrate] | 5.99 | 6.03 | 5.99 | 5.9 | 5.99 | 5.94 | 5.68 | > 200 µM |
| N#C/N=C1\SCCN1Cc1ccc(Cl)nc1 [Thiacloprid] | 5.99 | 5.88 | 5.94 | 5.96 | 5.96 | 5.89 | 5.81 | > 200 µM |
| CCOC(N)=O [Urethane (ethyl carbamate)] | 5.96 | 5.93 | 5.97 | 6 | 5.95 | 5.91 | 5.97 | > 200 µM |
| Cc1cccc(C)c1N [2,6-Dimethylaniline] | 5.87 | 6.07 | 6.05 | 5.98 | 6 | 5.83 | 5.84 | > 200 µM |
| COc1cc2c(c(OC)c1OC)-c1ccc(OC)c(=O)cc1[C@@H](NC(C)=O)CC2 [Colchicine] | 5.82 | 5.93 | 5.87 | 5.95 | 5.92 | 5.89 | 5.7 | > 200 µM |
| OCCOc1ccccc1 [Phenoxyethanol] | 5.77 | 5.98 | 6.04 | 6.07 | 6.15 | 5.99 | 5.97 | > 200 µM |
| OCC1CO1 (stereo not given) [Glycidol] | 5.87 | 5.79 | 5.81 | 5.79 | 5.78 | 5.49 | 5.83 | > 200 µM |
| c1nc[nH]n1 [1H-1,2,4-Triazole] | 6.09 | 6.11 | 6 | 6.04 | 6.04 | 6.02 | 5.74 | > 200 µM |

| Structure (SMILES) | mean nematode size ln(EXT) (ln) ([1]; 0.5 µM) | mean nematode size ln(EXT) (ln) ([1]; 1 µM) | mean nematode size ln(EXT) (ln) ([1]; 5 µM) | mean nematode size ln(EXT) (ln) ([1]; 10 µM) | mean nematode size ln(EXT) (ln) ([1]; 50 µM) | mean nematode size ln(EXT) (ln) ([1]; 100 µM) | mean nematode size ln(EXT) (ln) ([1]; 200 µM) | lowest effective concentration [2] |
| --- | --- | --- | --- | --- | --- | --- | --- | --- |
| CCCCCCCC=O [Octanal] | 6 | 5.82 | 5.94 | 5.77 | 5.88 | 5.84 | 5.77 | > 200 µM |
| O=C(O)c1nc(Cl)ccc1Cl [Clopyralid-olamine] | 5.87 | 5.89 | 5.95 | 5.89 | 5.88 | 5.98 | 5.95 | > 200 µM |
| c1cc(-c2ccncc2)ccn1 [4,4'-bipyridine] | 5.97 | 5.91 | 5.89 | 5.94 | 5.95 | 6.01 | 5.85 | > 200 µM |
| Cc1nc(C)nc(N2C[C@@H](C)N(c3ccnc([C@@H](C)O)n3)[C@@H](C)C2)n1 | 5.83 | 5.77 | 5.75 | 5.69 | 5.71 | 5.7 | 5.85 | > 200 µM |
| CN(C)C(=S)S [Sodium dimethyldithiocarbamate] | 5.93 | 5.79 | 5.88 | 5.82 | 5.85 | 5.81 | 5.69 | > 200 µM |
| CCCCCOC(=O)c1ccccc1C(=O)OCCCCC [Dipentyl phthalate] | 5.85 | 5.86 | 5.89 | 5.87 | 5.85 | 5.81 | 5.73 | > 200 µM |
| OCCNCCO [Diethanolamine] | 6.04 | 6.05 | 6.04 | 6.02 | 6.1 | 6.07 | 5.79 | > 200 µM |
| O=c1ccc2ccccc2o1 [Coumarin] | 5.93 | 5.92 | 5.85 | 5.93 | 5.94 | 5.95 | 5.8 | > 200 µM |
| CC(C)C1(C)N=C(c2nc3ccccc3cc2C(=O)O)NC1=O (stereo not given) [Imazaquin] | 6.13 | 6.14 | 6.13 | 6.33 | 6.08 | 6.06 | 6.1 | > 200 µM |
| CN(C)C(=O)Nc1cccc(C(F)(F)F)c1 [Fluometuron] | 6.02 | 6.11 | 6.08 | 6.02 | 5.87 | 6.07 | 5.78 | > 200 µM |
| O=C1NC(=O)C(c2ccccc2)(c2ccccc2)N1 [5,5-Diphenylhydantoin] | 5.94 | 5.99 | 5.92 | 5.94 | 5.91 | 5.88 | 5.78 | > 200 µM |
| CCCCCOC(C)=O [Pentyl acetate] | 5.91 | 5.91 | 5.94 | 6 | 5.89 | 5.89 | 5.7 | > 200 µM |
| COCc1nnc(-c2ccc[n+]([O-])c2)n1-c1c(Cl)c(Cl)cc2[nH]c(=O)c(=O)[nH]c12 | 5.89 | 6.15 | 6.22 | 6.24 | 6.17 | 6.08 | 5.67 | > 200 µM |
| CCNc1nc(Cl)nc(NC(C)(C)C#N)n1 [Cyanazine] | 5.89 | 5.95 | 5.88 | 6.03 | 6.26 | 6.42 | 5.86 | > 200 µM |
| CN(C)C(=S)[S-].CN(C)C(=S)[S-].[Zn+2] [Ziram] | 5.98 | 5.89 | 5.78 | 5.83 | 5.84 | 5.75 | 5.77 | > 200 µM |
| CCCCC(CC)COC(=O)c1ccccc1C(=O)O (stereo not given) [Phthalic acid, mono-2-ethylhexyl ester] | 5.83 | 5.76 | 5.77 | 6.08 | 6.11 | 6.44 | 5.88 | > 200 µM |
| Oc1ccccc1O [Catechol] | 5.94 | 5.82 | 5.86 | 5.84 | 5.9 | 5.95 | 5.72 | > 200 µM |
| N#C[C@@H]1CC(F)(F)CN1C(=O)CNC1CC2CCC(C1)N2c1ncccn1 (stereo not given in full) | 5.82 | 5.89 | 5.85 | 6 | 5.95 | 5.78 | 5.85 | > 200 µM |
| NC(=O)NO [Hydroxyurea] | 6 | 5.97 | 5.92 | 5.93 | 5.75 | 5.63 | 5.73 | > 200 µM |
| CC1=NNC(=O)N(/N=C/c2cccnc2)C1 [Pymetrozine] | 5.74 | 5.77 | 5.8 | 5.78 | 5.77 | 5.89 | 5.76 | > 200 µM |
| CCn1nc(Cc2ccccc2)cc1C1CCN(C[C@H]2C[C@H](N(C)[C@@H](C(=O)O)C(C)C)C[C@@H]2c2cccc(F)c2)CC1 | 5.93 | 5.9 | 5.91 | 5.93 | 5.92 | 5.83 | 5.73 | > 200 µM |
| [As]#[In] [Indium arsenide] | 5.78 | 5.76 | 5.77 | 5.75 | 5.54 | 5.53 | 5.86 | > 200 µM |
| CC(C)(C)c1ccc(O)cc1 [4-tert-Butylphenol] | 5.86 | 5.91 | 5.92 | 5.94 | 5.91 | 5.81 | 5.71 | > 200 µM |
| CCNc1nc(Cl)nc(NCC)n1 [Simazine] | 6.2 | 6.08 | 6.12 | 6.13 | 6.17 | 6.19 | 5.77 | > 200 µM |
| C=C(C)C(N)=O [Methacrylamide] | 6.05 | 5.91 | 5.89 | 5.82 | 6.01 | 5.82 | 5.86 | > 200 µM |
| CN(C)CCCN(C)CCCN(C)C | 5.82 | 5.85 | 5.88 | 5.85 | 5.81 | 5.89 | 5.96 | > 200 µM |
| O=S(=O)(O)c1ccc(N=Nc2c(O)ccc3cc(S(=O)(=O)O)ccc23)cc1 [FD&C Yellow no. 6] | 5.95 | 5.86 | 5.74 | 5.85 | 5.89 | 5.91 | 5.84 | > 200 µM |
